From PMC10149936, “Cofilin activation in pancreatic acinar cells plays a pivotal convergent role for mediating CCK-stimulated enzyme secretion and growth” (Frontiers in Physiology, 2023)

Assays:
[1] = system: MEK1; details: non ATP-competitive; reference not given; cited from earlier work
[2] = system: cofilin (pS3) in rat pancreatic acini; experiment: cofilin activation (phospho-pS3 cofilin Western blot) in isolated rat pancreatic acini; assay type: cell-based; details: for reversal of cofilin dephosphorylation by CCK-8: Wortmannin 1 µM, LY294002 100 µM, SB202190 10 µM, U0126 10 µM, Y-27632 10 µM 1 h, SP600125 20 µM 3 h
Method: Pancreatic acini preparations were obtained by collagenase digestion as previously described ([Bissonnette et al., 1984]; [Sato et al., 1989]; [Ramos-Alvarez and Jensen, 2018]). After collagenase digestion, dispersed acini were preincubated with different inhibitors in standard incubation solution ([Ramos-Alvarez and Jensen, 2018]; [Ramos-Ãlvarez et al., 2020]) for 3 h at 37°C under conditions specific for PKD/PKC, Src, PI3K, MAPKs, SSH1, LIMK, cofilin, other phosphatases and PAK4 inhibitors, as described previously ([Ramos-Alvarez and Jensen, 2018]; [Ramos-Ãlvarez et al., 2020]). Isolated acini and CCK1-R/Panc-1 cells (M&M 2.2.1) were also preincubated with two SSH1 inhibitors, D3 (25 μM, 1 h) ([Li et al., 2015]) or SE (50 μM, 3 h for acini; 24 h for CCK1-R/Panc-1 cells) ([Lee et al., 2017]). After preincubation, 1 mL aliquots of dispersed acini were incubated at 37°C for 3–15 min with CCK-8 (0.3 nM or 100 nM), for 5–15 min with TPA (1 µM) or without stimulants, used as control. Cells were lysed in lysis buffer (50 mM Tris/HCl pH 7.5, 150 mM NaCl, 1% Triton X-100, 1% deoxycholate, 0.1% sodium azide, 1 mM EGTA, 0.4 mM EDTA, 0.2 mM sodium orthovanadate, 1 mM PMSF, and one protease inhibitor tablet per 10 mL). After sonication, lysates were centrifuged at 10,000×g for 15 min at 4°C and protein concentration was measured using the Bio-Rad protein assay reagent. Finally, cells were processed as below for Western blotting.
Both concentrations of CCK-8 were used because CCK-8 is reported to have different responses with physiological and supraphysiological concentrations contributing to physiological and pathophysiological processes such as pancreatitis ([Dufresne et al., 2006]).
Western blotting and immunoprecipitation were performed as described previously ([Ramos-Alvarez and Jensen, 2018]). Whole cell lysates were subjected to SDS-PAGE using 4%–20% Tris–Glycine gels. […] Finally, membranes were then washed again twice in blocking buffer for 4 min, twice in washing buffer for 4 min, incubated for 4 min with chemiluminescence detection reagents. The intensity of the protein bands was measured using GeneTools software from Syngene, which were assessed in the linear detection range.
All experiments were performed at least 3 times. Data are presented as mean ± SEM and were analyzed with the non-parametric Kruskal–Wallis analysis (data was not normally distributed) and the Dunn’s multiple comparison test using the GraphPad Prism 8.0 software. P values < 0.05 were considered significant.
(A) Isolated pancreatic acini were incubated in the absence or presence of CCK-8 (100 nM), carbachol (1 μM), bombesin (1 nM), secretin (1 nM) or VIP (1 nM) for 1 min and then lysed. (B) Isolated pancreatic acini were incubated in the absence or presence of CCK-8 and CCK-JMV (at the indicate concentrations) for 3 min and then lysed. Western blots were analyzed using anti-pS3 cofilin, which mediates the activation state of cofilin. Bands were visualized using chemiluminescence and quantified by densitometry.

[3] = system: MEK2; details: non ATP-competitive; reference not given; cited from earlier work
[4] = system: JNK1-3; details: reversible ATP-competitive; reference not given; cited from earlier work
Source text: (Figure 10) In various tissues with difference stimuli, cofilin dephosphorylation and activation, has been reported to be mediated by PI3K, ROCK and various MAPKs (p38, p44/42, JNK) ([Won et al., 2008]; [Duan et al., 2014]), therefore we assessed their possible role in CCK-8-stimulated cofilin activation. Previous studies have shown that, in pancreatic acini and/or other tissues, CCK-8 activates each of these signaling cascades ([Berna et al., 2009]; [Camello-Almaraz et al., 2009]; [Ramos-Alvarez and Jensen, 2018]; [Ramos-Ãlvarez et al., 2020]). In order to address the role of these signal cas ...

[5] = system: PP2A; details: cited from earlier work
Source text: (§1) Because our results differ from the general finding that the two major signaling cascades in other tissues mediating cofilin activity, which involve alterations in LIMK and/or SSH1 activity ([Wang et al., 2005]; [Spratley et al., 2011]; [Mizuno, 2013]; [Ohashi, 2015]; [Xu et al., 2021]), were not important in mediating CCK’s activation of cofilin in pancreatic acini, we explored the possible involvement of other phosphatases that have been reported to participate in cofilin activation in other tissues with other stimulants. The activation of the serine/threonine phosphatases type 1 (PP1) or ty ...

[6] = system: pancreas; design: method as in Waschulewski et al., 1996; details: ref Waschulewski et al., 1996; cited from earlier work
[7] = system: PP2A / PP1; details: low concentrations; ref Ishihara et al., 1989; Takai et al., 1992; Lutz et al., 1993; Schmidt et al., 1994; Walsh et al., 1997; cited from earlier work
Source text: (Figures 5, 6) In human T lymphocytes, neurons, the 293 T cell line (human embryonic kidney 293 cells) and HeLa cells, it is reported that activation of cofilin can occur due its dephosphorylation through the co-stimulation activation of accessory receptors (e.g.,.CD2, CD3 or CD28) by CD3xCD28 mAb, with Endothelin-1 (ET-1), and the Ca^2+ ionophore A23187, which is mediated by activation of serine protein phosphatases ([Ambach et al., 2000]; [Wang et al., 2005]; [Tam et al., 2019]). Therefore, to explores the possible role of the protein phosphatases PP1, PP2A, PP2B in CCK-8-induced activation ...

[8] = system: parotid acinar cells; design: method as in Tamaki and Yamashina, 2002; details: ref Tamaki and Yamashina, 2002; cited from earlier work
[9] = system: cofilin in human T lymphocytes; details: stimulated by CD2 or CD28; ref Ambach et al., 2000; cited from earlier work
Source text: as §1

In the case of N#CC(=C(/N)Sc1ccccc1N)/C(C#N)=C(/N)Sc1ccccc1N [U0126], the IC50 [1] is given as 72 nM, the “reversal of cofilin dephosphorylation by CCK-8” value ([2]; CCK-8 0.3 and 100 nM 3 min) is given as “Only preincubation with the JNK inhibitor, SP600125 (Figure 10C), and the ROCK inhibitor, Y-27632, (Figure 10D), completely reversed cofilin dephosphorylation by CCK-8” and the IC50 [3] is given as 58 nM.

In the case of Oc1c2ccccc2c2c3c(cccc13)N=N2 [SP600125], the “reversal of cofilin dephosphorylation by CCK-8” value ([2]; CCK-8 0.3 and 100 nM 3 min) is listed as “completely reversed” and the IC50 [4] is listed as 110 nM.

For C=C1[C@@H](O)[C@@H]2O[C@]3(CC[C@H](/C=C/[C@@H](C)[C@@H]4CC(C)=C[C@@]5(O[C@H](C[C@@](C)(O)C(=O)O)CC[C@H]5O)O4)O3)CC[C@H]2O[C@@H]1[C@@H](O)C[C@H](C)[C@H]1O[C@@]2(CCCCO2)CC[C@H]1C [okadaic acid], the “phosphatase selectivity in pancreatic acini” value ([5]; nanomolar concentrations, pancreatic acini, ref Wagner et al., 1992) is given as “only inhibit PP2A”, the IC50 ([5]; pancreatic acinar cells, ref Lutz et al., 1993, read-out: IC50, CCK1R-stimulated phosphatase activity (PP2A) in cytosol of pancreatic acinar cells) is given as 0.2 nM and the “effect on stimulated enzyme secretion in pancreas” value [6] is given as “completely blocked stimulated enzyme secretion in pancreas”. For the same compound, the “decrease of basal level of cofilin phosphorylation” value ([2]; calyculin A 1 nM or okadaic acid 10 nM, 3 h, no stimulant) was 12%, the “inhibition of cofilin activation stimulated by CCK-8” value ([2]; calyculin A 1 nM or okadaic acid 10 nM, 3 h, CCK-8 0.3 and 100 nM 3 min) was “completely inhibited” and the “greater inhibitory effect on PP2A over PP1” value [7] was 50-250 fold. The “effect on amylase release in parotid acinar cells” value [8] was “disrupted amylase release in parotid acinar cells”.

In the case of C=CC[C@@H]1/C=C(\C)C[C@H](C)C[C@H](OC)[C@H]2O[C@@](O)(C(=O)C(=O)N3CCCC[C@H]3C(=O)O[C@H](/C(C)=C/[C@@H]3CC[C@@H](O)[C@H](OC)C3)[C@H](C)[C@@H](O)CC1=O)[C@H](C)C[C@@H]2OC [FK-506], the “effect on dephosphorylation of cofilin in human T lymphocytes” value [9] is listed as “did not affect the dephosphorylation of cofilin in human T lymphocytes” and the “effect on CCK-8 or TPA's activation of cofilin” value ([2]; FK-506 10 µM 3 h, CCK-8 0.3 and 100 nM 3 min, TPA 1 µM 5 min) is listed as “had no effect”.
